Measured values as given in patent US12305171B2, “Compositions and methods for treating cancer” (bioAffinity Technologies, Inc., priority 2018, dated 2025).
Read-outs that look alike come from different tables or passages of the source.

Legend:
[1] = test system: LncAP; assay: functional siRNA cell proliferation assay (CTG assay, microscopy); type: cell-based; details: LnCAP (Prostate); 4 txns; 7 days expt; n=3
Description: (§1) FIGS. 10 A-E illustrate graphs of the effects of siCD320 and siLRP2 on cell proliferation—Cell lines representative of several types of cancers (breast, prostate, skin) were transfected with individual or combinations of siRNAs targeting CD320 (OSC17, OSC47) or LRP2 (05L231, OSL245) as indicated. Cells were repeatedly transfected as outlined in Table 9 for efficient toxicity, then assayed for viability by the CTG assay. Doxorubicin-treated cells served as a positive control for cell toxicity in our assays (Table 8).
(§2) FIGS. 16 A-D illustrate plated cells showing the effects of siCD320 and siLRP2 on four cell lines. Cell lines representative of four types of cancers (breast, two prostate, skin) were transfected with siRNAs targeting CD320 (OSC17) or LRP2 (05L245) individually at 20 nM or in combination (10 nM each) or a negative control siRNA (OSS2) (20 nM) as indicated. Cells were repeatedly transfected for efficient toxicity as in Table 9 and then analyzed by microscopy as indicated.
(§3) Referring now to FIG. 16, treatment of breast, prostate, and skin cancer cells with an inhibitor of CD320 receptor or an inhibitor of LRP2 receptor or a combination of both in an amount effective to inhibit proliferation of the cancer cells as compared to the control cells treated with control siRNA is illustrated. […]

[2] = test system: MDA-MB-231; assay: as above; type: cell-based; details: MDA-MB-231 (Breast); 4 txns; 11 days expt; n=6
Description: as §1
FIGS. 11A-B illustrate the effects of siCD320 and siLRP2 molar proportions on cell proliferation with different molar proportions of siRNA targeting CD320 and siRNA targeting LRP2. Cell lines representative of two types of cancers (breast, prostate) were transfected with different proportions of siRNAs targeting CD320 (OSC17) or LRP2 (05L245) (0-20 nM) or a negative control siRNA (OSS2) as indicated. […]
FIGS. 16 A-D illustrate plated cells showing the effects of siCD320 and siLRP2 on four cell lines. […] Cells were repeatedly transfected for efficient toxicity as in Table 9 and then analyzed by microscopy as indicated.
Now, referring to FIG. 10B, MDA-MB-231 triple negative breast cancer cells were plated in a 24-well plate at 20,000 cells/well. […] At day 11, cells were analyzed for cell growth by the CTG assay. […]

[3] = test system: MCF-7; assay: functional siRNA cell proliferation screening (CTG assay); type: cell-based; details: MCF-7 (Breast); 2 txns; 7 days expt; n=3
Procedure: as §1, with “9” for “10”, “percent cell survival” for “effects”, “(lung, brain) or normal fibroblasts” for “(breast, prostate, skin)”, “OSL245), individually at 20 nM or in combination (10 nM each), or a negative control siRNA (OSS2) (20 nM)” for “OSL245)”
as §1
(§4) Referring now to FIG. 16, treatment of breast, prostate, and skin cancer cells with an inhibitor of CD320 receptor or an inhibitor of LRP2 receptor or a combination of both in an amount effective to inhibit proliferation of the cancer cells as compared to the control cells treated with control siRNA is illustrated. MDA-MB-231, DU145, LnCAP, and MDA-MB-435S cells were plated at 20,000 cells per well in a 24-well plate. The next day, the cells were transected with 20 nM of indicated siRNAs to knock down CD320, LRP2, or scrambled control. For the combination of siRNAs, cells were treated with 10 nM of each siRNA for 20 nM total treatments. The indicated pictures of the cells were taken at the end of the experiment.

[4] = test system: U251; assay: as above; type: cell-based; details: U251 (Glioblastoma); 6 txns; 8 days expt; n=4
Procedure: as §1, with “9” for “10”, “percent cell survival” for “effects”, “(lung, brain) or normal fibroblasts” for “(breast, prostate, skin)”, “OSL245), individually at 20 nM or in combination (10 nM each), or a negative control siRNA (OSS2) (20 nM)” for “OSL245)”
as §1, §4

[5] = test system: GM05659; assay: as above; type: cell-based; details: GM05659 (Normal); 4 txns; 7 days expt; n=3
Procedure: as §1, with “9” for “10”, “percent cell survival” for “effects”, “(lung, brain) or normal fibroblasts” for “(breast, prostate, skin)”, “OSL245), individually at 20 nM or in combination (10 nM each), or a negative control siRNA (OSS2) (20 nM)” for “OSL245)”
as §1, §4

[6] = test system: H157; assay: as above; type: cell-based; details: H157 (Lung); 5 txns; 8 days expt; n=3
Procedure: as §1, with “9” for “10”, “percent cell survival” for “effects”, “(lung, brain) or normal fibroblasts” for “(breast, prostate, skin)”, “OSL245), individually at 20 nM or in combination (10 nM each), or a negative control siRNA (OSS2) (20 nM)” for “OSL245)”
as §1, §4

[7] = test system: A172; assay: as above; type: cell-based; details: A172 (Glioblastoma); 5 txns; 7 days expt; n=3
Procedure: as §1, with “9” for “10”, “percent cell survival” for “effects”, “(lung, brain) or normal fibroblasts” for “(breast, prostate, skin)”, “OSL245), individually at 20 nM or in combination (10 nM each), or a negative control siRNA (OSS2) (20 nM)” for “OSL245)”
as §1, §4

[8] = test system: HCC15; assay: as above; type: cell-based; details: HCC15 (Lung); 2 txns; 7 days expt; n=3
Procedure: as §1, with “9” for “10”, “percent cell survival” for “effects”, “(lung, brain) or normal fibroblasts” for “(breast, prostate, skin)”, “OSL245), individually at 20 nM or in combination (10 nM each), or a negative control siRNA (OSS2) (20 nM)” for “OSL245)”
as §1, §4

[9] = test system: MDA-MB-435S; assay: functional siRNA cell proliferation assay (CTG assay, microscopy); type: cell-based, human; details: MDA-MB-435S (Melanoma); 5 txns; 10 days expt; n=4
Description: as §1, §2, §3

[10] = test system: DU145; assay: as above; type: cell-based; details: DU-145 (Prostate); 4 txns; 7 days expt; n=6
Description: as §1
FIGS. 11A-B illustrate the effects of siCD320 and siLRP2 molar proportions on cell proliferation with different molar proportions of siRNA targeting CD320 and siRNA targeting LRP2. Cell lines representative of two types of cancers (breast, prostate) were transfected with different proportions of siRNAs targeting CD320 (OSC17) or LRP2 (05L245) (0-20 nM) or a negative control siRNA (OSS2) as indicated. Cells were repeatedly transfected for efficient toxicity then assayed for viability by the CTG assay. Doxorubicin-treated cells served as a positive control for cell toxicity in our assays (Table 8).
FIGS. 16 A-D illustrate plated cells showing the effects of siCD320 and siLRP2 on four cell lines. […] Cells were repeatedly transfected for efficient toxicity as in Table 9 and then analyzed by microscopy as indicated. […]

[11] = test system: NCI-H460; assay: doxorubicin cell viability, CTG assay; type: cell-based; details: Homo sapiens, 96 h; NCI-H460, Lung; CTG 4 days after treatment
Procedure: (§5) A172 and HCC15 cells were plated at 1200 cells/well in a 96 well plate. The next day, cells were treated with doxorubicin at the indicated concentrations. Four days after the doxorubicin exposure was initiated, the cells were assayed for viability using the CTG assay. […] After incubating the cells with the CTG reagent, ATP levels can be indirectly measured as light production using the TECAN luminescence plate reader. As a first step, toxicity of a known chemotherapeutic drug, doxorubicin, was assayed on the cell lines of interest. Doxorubicin was used as a positive control for cell toxicity in our assay.
(§6) The cells lines were plated at 1,000 to 4,000 cells/well in a 96-well plate and treated with doxorubicin the following day. CTG activity was measured 4 days after treatment. IC50 values were calculated by GraphPad Prism Software.

[12] = test system: U251; assay: doxorubicin cell viability, CTG assay; type: cell-based; details: Homo sapiens, U-251, 96 h; U251, Glioblastoma; CTG 4 days after treatment
Procedure: as §5, §6

[13] = test system: DU145; assay: doxorubicin cell viability, CTG assay; type: cell-based; details: Homo sapiens, DU-145, 96 h; DU145, Prostate; CTG 4 days after treatment
Procedure: as §5, §6

[14] = test system: HEK293; assay: doxorubicin cell viability, CTG assay; type: cell-based; details: Homo sapiens, 96 h; HEK293, Other; CTG 4 days after treatment
Procedure: as §5, §6

[15] = test system: MDA-MB-435S; assay: doxorubicin cell viability, CTG assay; type: cell-based; details: Homo sapiens, 96 h, Melanoma, CTG 4 days after treatment
Procedure: as §5, §6

[16] = test system: GM05659; assay: doxorubicin cell viability, CTG assay; type: cell-based; details: 96 h; GM05659, Other; CTG 4 days after treatment
Procedure: as §5, §6

[17] = test system: PC3; assay: doxorubicin cell viability, CTG assay; type: cell-based; details: Homo sapiens, PC-3, 96 h; PC3, Prostate; CTG 4 days after treatment
Procedure: as §5, §6

[18] = test system: A172; assay: doxorubicin cell viability, CTG assay; type: cell-based; details: Homo sapiens, A 172, 96 h
Procedure: (§7) A172 and HCC15 cells were plated at 1200 cells/well in a 96 well plate. The next day, cells were treated with doxorubicin at the indicated concentrations. Four days after doxorubicin treatment was initiated, the cells were assayed for viability using the CTG assay. The dashed line indicates the non-linear fitting of the data to calculate an IC50 value.
as §5, §6

[19] = test system: HCC15; assay: doxorubicin cell viability, CTG assay; type: cell-based; details: 96 h
Procedure: as §7, §5, §6

With `COc1cccc2c1C(=O)c1c(O)c3c(c(O)c1C2=O)C[C@@](O)(C(=O)CO)C[C@@H]3O[C@H]1C[C@H](N)[C@H](O)[C@H](C)O1` [DOX] the “percent survival compared to negative control OSS2” value (from here on “percent survival”) [1] was 38%, the “percent survival” value [2] was 7% and the “percent survival” value [3] was 5%. For the same molecule, the “percent survival” value [4] was 51%, the “percent survival” value [5] was 39% and the “percent survival” value [6] was 20%. The “percent survival” value [7] was 8%, the “percent survival” value [8] was 2% and the “percent survival” value [9] was 51%. The “percent survival” value [10] was 40%.
`COc1cccc2c1C(=O)c1c(O)c3c(c(O)c1C2=O)C[C@@](O)(C(=O)CO)C[C@@H]3O[C@H]1C[C@H](N)[C@H](O)[C@H](C)O1` [doxorubicin] was tested, and the IC50 [11] was 56 nM, the IC50 [12] was 24 nM and the IC50 [13] was 248 nM. It also gave an IC50 [14] of 29 nM, an IC50 [15] of 325 nM and an IC50 [16] of 267 nM. For the same molecule, the IC50 [17] was 387 nM, the IC50 ([18]; A172, Glioblastoma, CTG 4 days after treatment, read-out: IC50) was 132 nM and the IC50 ([18]; A172 cells, CTG four days after exposure, read-out: IC50 of doxorubicin treatment) was 132 nM. The IC50 ([19]; HCC15, Lung, CTG 4 days after treatment, read-out: IC50) was 167 nM and the IC50 ([19]; HCC15 cells, CTG four days after exposure, read-out: IC50 of doxorubicin treatment) was 167 nM.
